Measurements taken from US20200291086A1, “BIOREVERSABLE PROMOIETIES FOR NITROGEN-CONTAINING AND HYDROXYL-CONTAINING DRUGS” (priority 2013, published 2020).
Numbered stars: 1 amine (or outer) side, 2 acyl side, 3 side chain; on linkers, the order of the positions; unused ones are H or OH. Square brackets hold non-standard residues; d marks the D form. Peptide text beside a SMILES is read from it. * marks the point of attachment. X16 = C[C@H](N)c1nc(SCC(=O)NCCNC(=O)OCC2c3ccccc3-c3ccccc32)cn1[C@@H](C)C(=O)*; X10 = C[C@H](N)c1nnnn1[C@@H](CCCCN[*:1])C(=O)[*:2]; X8 = C[C@@H](C(=O)[*:2])n1nncc1[C@@H](N)CCCCN[*:1]; X3 = NCc1cccn1[C@@H](CCCCN[*:1])C(=O)[*:2]; Fmoc = O=C(OCC1c2ccccc2-c2ccccc21)*; X15 = NCc1cc(S(N)(=O)=O)ccc1C(=O)*; X14 = NCCc1ccccc1C(=O)*

Tested on: not listed separately
Experiment: Determination of half life in serum: cleavage of promoieties from capped D-amino acid model peptides
Format: in vitro ADME
Conditions: 100% serum, 37° C.; read-out: t 1/2 (h), cleavage of promoiety linked to N terminus of model peptide X-G-dI-dV-dE-dQ-dA-dA (converted)
Protocol: Determination of Half Life in Serum
Promoiety capped model peptides X-G-dI-dV-dE-dQ-dA-dA were used in the assay. D amino acids were used to prevent other enzymatic cleavage of the model peptides. The peptides were dissolved in 100% serum and incubated at 37° C. Samples were collected for analysis at different time points (e.g., 1 h, 2 h, 4 h, 8 h, 12 h, 24 h, 48 h, 72 h, 96 h, and 120 h).
The concentrations of the promoiety capped model peptides and the released parent model peptides were determined by their respective peak areas. The first order dissociation rate constant of a promoiety capped model peptide was determined by plotting the logarithm of [starting promoiety capped model peptide]/[remaining promoiety capped model peptide] at various time intervals. The half life for cleavage of a promoiety capped model peptide was calculated by using the equation and the slope derived from this plot.

Compound | half-life [h]
CC[C@@H](C)[C@@H](NC(=O)CNC(=O)[C@H](CCCCNC(=O)OCC1c2ccccc2-c2ccccc21)n1cccc1CN)C(=O)N[C@@H](C(=O)N[C@H](CCC(=O)O)C(=O)N[C@H](CCC(N)=O)C(=O)N[C@H](C)C(=O)N[C@H](C)C(=O)O)C(C)C (Fmoc-[X3]G[dI][dV][dE][dQ][dA][dA]-OH) | 103
CC[C@@H](C)[C@@H](NC(=O)CNC(=O)[C@H](C)n1cc(SCC(=O)NCCNC(=O)OCC2c3ccccc3-c3ccccc32)nc1[C@H](C)N)C(=O)N[C@@H](C(=O)N[C@H](CCC(=O)O)C(=O)N[C@H](CCC(N)=O)C(=O)N[C@H](C)C(=O)N[C@H](C)C(=O)O)C(C)C (X16-G[dI][dV][dE][dQ][dA][dA]-OH) | 72.3
CC[C@@H](C)[C@@H](NC(=O)CNC(=O)c1ccc(S(N)(=O)=O)cc1CN)C(=O)N[C@@H](C(=O)N[C@H](CCC(=O)O)C(=O)N[C@H](CCC(N)=O)C(=O)N[C@H](C)C(=O)N[C@H](C)C(=O)O)C(C)C (X15-G[dI][dV][dE][dQ][dA][dA]-OH) | 39.9

The remaining lines, values ahead:

half-life [h] | Compound
106 | CC[C@@H](C)[C@@H](NC(=O)CNC(=O)c1ccccc1CCN)C(=O)N[C@@H](C(=O)N[C@H](CCC(=O)O)C(=O)N[C@H](CCC(N)=O)C(=O)N[C@H](C)C(=O)N[C@H](C)C(=O)O)C(C)C (X14-G[dI][dV][dE][dQ][dA][dA]-OH)
96.4 | CC[C@@H](C)[C@@H](NC(=O)CNC(=O)[C@H](C)n1nncc1[C@@H](N)CCCCNC(=O)OCC1c2ccccc2-c2ccccc21)C(=O)N[C@@H](C(=O)N[C@H](CCC(=O)O)C(=O)N[C@H](CCC(N)=O)C(=O)N[C@H](C)C(=O)N[C@H](C)C(=O)O)C(C)C (Fmoc-[X8]G[dI][dV][dE][dQ][dA][dA]-OH)
91.5 | CC[C@@H](C)[C@@H](NC(=O)CNC(=O)[C@H](CCCCNC(=O)OCC1c2ccccc2-c2ccccc21)n1nnnc1[C@H](C)N)C(=O)N[C@@H](C(=O)N[C@H](CCC(=O)O)C(=O)N[C@H](CCC(N)=O)C(=O)N[C@H](C)C(=O)N[C@H](C)C(=O)O)C(C)C (Fmoc-[X10]G[dI][dV][dE][dQ][dA][dA]-OH)

Biological target: insulin receptor (Homo sapiens, UniProt P06213)
Experiment: not given
Conditions: cited from earlier work

Chain of insulin receptor (P06213 28-758 limits assumed, species assumed): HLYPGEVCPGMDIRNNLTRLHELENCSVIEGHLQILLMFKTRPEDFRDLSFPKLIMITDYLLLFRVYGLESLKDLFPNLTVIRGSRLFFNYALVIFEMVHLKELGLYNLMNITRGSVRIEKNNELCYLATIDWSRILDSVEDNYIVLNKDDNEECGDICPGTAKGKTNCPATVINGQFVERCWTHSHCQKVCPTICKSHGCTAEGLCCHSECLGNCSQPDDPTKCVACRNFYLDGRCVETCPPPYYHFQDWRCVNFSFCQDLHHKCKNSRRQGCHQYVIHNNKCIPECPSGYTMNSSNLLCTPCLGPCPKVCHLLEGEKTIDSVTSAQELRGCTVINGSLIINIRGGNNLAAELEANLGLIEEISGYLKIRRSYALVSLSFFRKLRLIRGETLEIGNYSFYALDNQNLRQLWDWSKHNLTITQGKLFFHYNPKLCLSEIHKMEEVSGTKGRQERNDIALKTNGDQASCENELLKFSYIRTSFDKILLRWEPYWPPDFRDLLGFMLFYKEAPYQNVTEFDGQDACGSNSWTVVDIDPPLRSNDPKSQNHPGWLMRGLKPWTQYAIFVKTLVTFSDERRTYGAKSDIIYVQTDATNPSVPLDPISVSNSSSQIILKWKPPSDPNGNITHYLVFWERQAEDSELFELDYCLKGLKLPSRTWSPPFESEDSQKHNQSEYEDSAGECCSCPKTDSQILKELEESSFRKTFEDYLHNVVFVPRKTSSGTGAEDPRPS
Chain of insulin receptor (P06213 763-1382 partner limits assumed, species assumed): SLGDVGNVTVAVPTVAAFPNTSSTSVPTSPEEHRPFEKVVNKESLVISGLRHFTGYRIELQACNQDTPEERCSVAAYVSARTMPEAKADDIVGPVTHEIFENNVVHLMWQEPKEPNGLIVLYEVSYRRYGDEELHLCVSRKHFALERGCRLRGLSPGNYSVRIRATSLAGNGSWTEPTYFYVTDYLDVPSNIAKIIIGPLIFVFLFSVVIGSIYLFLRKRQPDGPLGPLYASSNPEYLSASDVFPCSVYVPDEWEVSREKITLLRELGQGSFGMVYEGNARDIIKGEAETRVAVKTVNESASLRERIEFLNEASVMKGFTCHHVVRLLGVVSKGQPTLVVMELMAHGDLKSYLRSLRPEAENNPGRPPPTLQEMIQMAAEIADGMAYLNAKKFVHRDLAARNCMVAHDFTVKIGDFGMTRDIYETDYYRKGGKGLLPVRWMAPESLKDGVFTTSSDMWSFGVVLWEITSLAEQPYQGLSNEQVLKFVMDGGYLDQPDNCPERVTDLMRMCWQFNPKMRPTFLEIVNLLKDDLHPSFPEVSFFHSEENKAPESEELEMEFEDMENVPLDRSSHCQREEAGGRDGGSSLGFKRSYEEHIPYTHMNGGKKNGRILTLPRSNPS

Compound | binding affinity retained relative to native insulin
[LysB29-tetradecanoyl, des B30] insulin [insulin detemir] | 15-20%
